Target: T1, human neurokinin-1 receptor (NK1R) (Homo sapiens, UniProt P25103)
T1 construct: the cDNA for the human NK1R was cloned into the expression vector pCDM9; expressed in transfected cells
Experiment: Binding assay of human NK1R expressed in COS or CHO cells (125I-substance P competition)
Conditions: 125I-substance P binding to human NK1R expressed in COS or CHO cells
Protocol: Receptor Expression in COS: To express the cloned human neurokinin-1 receptor (NK1R) transiently in COS, the cDNA for the human NK1R was cloned into the expression vector pCDM9 which was derived from pCDM8 (INVITROGEN) by inserting the ampicillin resistance gene (nucleotide 1973 to 2964 from BLUESCRIPT SK+) into the Sac II site. Transfection of 20 ug of the plasmid DNA into 10 million COS cells was achieved by electroporation in 800 ul of transfection buffer (135 mM NaCl, 1.2 mM CaCl2, 1.2 mM MgCl2, 2.4 mM K2HPO4, 0.6 mM KH2PO4, 10 mM glucose, 10 mM HEPES pH 7.4) at 260 V and 950 uF using the IBI GENEZAPPER (1131, New Haven, Conn.). The cells were incubated in 10% fetal calf serum, 2 mM glutamine, 100 U/ml penicillin-streptomycin, and 90% DMEM media (GIBCO, Grand Island, N.Y.) in 5% CO2 at 37° C. for three days before the binding assay.
Stable Expression in CHO: To establish a stable cell line expressing the cloned human NK1R, the cDNA was subcloned into the vector pRcCMV (INVITROGEN). Transfection of 20 ug of the plasmid DNA into CHO cells was achieved by electroporation in 800 ul of transfection buffer supplemented with 0.625 mg/ml Herring sperm DNA at 300 V and 950 uF using the IBI GENEZAPPER (IBI). The transfected cells were incubated in CHO media [10% fetal calf serum, 100 U/ml penicillin-streptomycin, 2 mM glutamine, 1/500 hypoxanthine-thymidine (ATCC), 90% IMDM media (JRH BIOSCIENCES, Lenexa, Kans.), 0.7 mg/ml G418 (GIBCO)] in 5% CO2 at 37° C. until colonies were visible. Each colony was separated and propagated. The cell clone with the highest number of human NK1R was selected for subsequent applications such as drug screening.
Assay Protocol using COS or CHO: The binding assay of human NK1R expressed in either COS or CHO cells is based on the use of ^125I-substance P (^125I-SP, from DU PONT, Boston, Mass.) as a radioactively labeled ligand which competes with unlabeled substance P or any other ligand for binding to the human NK1R. Monolayer cell cultures of COS or CHO were dissociated by the non-enzymatic solution (SPECIALTY MEDIA, Lavallette, N.J.) and resuspended in appropriate volume of the binding buffer (50 mM Tris pH 7.5, 5 mM MnCl2, 150 mM NaCl, 0.04 mg/ml bacitracin, 0.004 mg/ml leupeptin, 0.2 mg/ml BSA, 0.01 mM phosphoramidon) such that 200 ul of the cell suspension would give rise to about 10,000 cpm of specific ^125I-SP binding (approximately 50,000 to 200,000 cells). In the binding assay, 200 ul of cells were added to a tube containing 20 ul of 1.5 to 2.5 nM of ^125I-SP and 20 ul of unlabeled substance P or any other test compound. The tubes were incubated at 4° C. or at room temperature for 1 hour with gentle shaking. The bound radioactivity was separated from unbound radioactivity by GF/C filter (BRANDEL, Gaithersburg, Md.) which was pre-wetted with 0.1% polyethylenimine. The filter was washed with 3 ml of wash buffer (50 mM Tris pH 7.5, 5 mM MnCl2, 150 mM NaCl) three times and its radioactivity was determined by gamma counter. The activation of phospholipase C by NK1R may also be measured in CHO cells expressing the human NK1R by determining the accumulation of inositol monophosphate which is a degradation product of IP3. CHO cells are seeded in 12-well plate at 250,000 cells per well. After incubating in CHO media for 4 days, cells are loaded with 0.025 uCi/ml of 3H-myoinositol by overnight incubation. The extracellular radioactivity is removed by washing with phosphate buffered saline. LiCl is added to the well at final concentration of […] with or without the test compound, and incubation is continued at 37° C. for […]. Substance P is added to the well at final concentration of 0.3 nM to activate the human NK1R. After 30 min of incubation at 37° C., the media is removed and 0.1 N HCl is added. Each well is sonicated at 4° C. and extracted with CHCl3/methanol (1:1). The aqueous phase is applied to a 1 ml Dowex AG 1×8 ion exchange column. […]

T1 sequence (P25103 whole entry): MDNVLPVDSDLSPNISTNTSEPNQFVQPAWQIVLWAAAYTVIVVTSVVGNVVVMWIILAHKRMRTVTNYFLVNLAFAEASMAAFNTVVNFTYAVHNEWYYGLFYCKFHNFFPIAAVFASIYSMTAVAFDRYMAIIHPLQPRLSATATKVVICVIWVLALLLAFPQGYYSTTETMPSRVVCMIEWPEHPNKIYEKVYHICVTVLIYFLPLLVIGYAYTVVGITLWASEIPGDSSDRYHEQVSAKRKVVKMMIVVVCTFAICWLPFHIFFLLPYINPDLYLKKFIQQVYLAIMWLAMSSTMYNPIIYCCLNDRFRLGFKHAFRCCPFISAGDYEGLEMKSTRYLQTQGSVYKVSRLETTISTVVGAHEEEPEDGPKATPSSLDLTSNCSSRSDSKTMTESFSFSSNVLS

Compound	IC50 [nM]
COC[C@@H](O[C@H]1CC[C@@H]2CN(C3=CC(=O)CC3)C[C@H]2[C@@H]1c1ccccc1C)c1cc(C(F)(F)F)cc(C(F)(F)F)c1 [Example 4, 3-[(3aR,4R,5S,7aS)-5-{(1S)-1-[3,5-bis(trifluoromethyl)phenyl]-2-methoxyethoxy}-4-(2-methylphenyl)octahydro-2H-isoindol-2-yl]cyclopent-2-en-1-one]	0.1
Cc1ccccc1[C@H]1[C@@H]2CN(C3=NC(=O)CO3)C[C@H]2CC[C@@H]1O[C@H](CO)c1cc(C(F)(F)F)cc(C(F)(F)F)c1 [Example 5, 2-[(3aR,4R,5S,7aS)-5-{(1S)-1-[3,5-bis(trifluoromethyl)phenyl]-2-hydroxyethoxy}-4-(2-methylphenyl)octahydro-2H-isoindol-2-yl]-1,3-oxazol-4(5H)-one]	0.06
Cc1ccccc1[C@H]1[C@@H]2CN(C(=O)N(C)C)C[C@H]2CC[C@@H]1O[C@H](CO)c1cc(C(F)(F)F)cc(C(F)(F)F)c1 [Example 6, (3aR,4R,5S,7aS)-5-{(1S)-1-[3,5-bis(trifluoromethyl)phenyl]-2-hydroxyethoxy}-N,N-dimethyl-4-(2-methylphenyl)octahydro-2H-isoindole-2-carboxamide]	0.03
Cc1ccccc1[C@H]1[C@@H]2CN(C(=O)C(C)C)C[C@H]2CC[C@@H]1O[C@H](CO)c1cc(C(F)(F)F)cc(C(F)(F)F)c1 [Example 7, (2S)-2-[3,5-bis(trifluoromethyl)phenyl]-2-{[(3aR,4R,5S,7aS)-2-isobutyryl-4-(2-methylphenyl)octahydro-1H-isoindol-5-yl]oxy}ethanol]	0.08
O=C1COC(N2C[C@H]3CC[C@H](O[C@H](CO)c4cc(C(F)(F)F)cc(C(F)(F)F)c4)[C@@H](c4ccc(F)cc4)[C@@H]3C2)=N1 [Example 8]	0.03
O=C1C=C(N2C[C@H]3CC[C@H](O[C@H](CO)c4cc(C(F)(F)F)cc(C(F)(F)F)c4)[C@@H](c4ccc(F)cc4)[C@@H]3C2)CC1 [Example 9]	0.09
Cc1cc(F)ccc1[C@H]1[C@@H]2CN(C3=NC(=O)CO3)C[C@H]2CC[C@@H]1O[C@H](CO)c1cc(C(F)(F)F)cc(C(F)(F)F)c1 [Example 10]	0.03
Cc1cc(F)ccc1[C@H]1[C@@H]2CN(C3=CC(=O)CC3)C[C@H]2CC[C@@H]1O[C@H](CO)c1cc(C(F)(F)F)cc(C(F)(F)F)c1 [Example 11]	0.03
Cc1ccccc1[C@H]1[C@@H]2CN(C(=O)C3CC3)C[C@H]2CC[C@@H]1O[C@H](CO)c1cc(C(F)(F)F)cc(C(F)(F)F)c1 [Example 13]	0.06
OC[C@@H](O[C@H]1CC[C@@H]2CNC[C@H]2[C@@H]1c1ccc(F)cc1)c1cc(C(F)(F)F)cc(C(F)(F)F)c1 [Example 16]	0.35
O=C1C=C(N2C[C@H]3CC[C@H](O[C@@H](CO)c4cc(C(F)(F)F)cc(C(F)(F)F)c4)[C@@H](c4ccc(F)cc4)[C@@H]3C2)CC1 [Example 21]	55
Cc1ccccc1[C@H]1[C@@H]2CN(C(=O)C(C)(C)C)C[C@H]2CC[C@@H]1O[C@@H](CO)c1cc(C(F)(F)F)cc(C(F)(F)F)c1 [Example 24]	45

Second part, the compound after the results:

IC50 [nM]	Compound
0.04	Cc1ccccc1[C@H]1[C@@H]2CNC[C@H]2CC[C@@H]1O[C@H](CO)c1cc(C(F)(F)F)cc(C(F)(F)F)c1 [Example 2, (2S)-2-[3,5-bis(trifluoromethyl)phenyl]-2-{[(3aR,4R,5S,7aS)-4-(2-methylphenyl)octahydro-1H-isoindol-5-yl]oxy}ethanol]
0.06	Cc1ccccc1[C@H]1[C@@H]2CN(C3=CC(=O)CC3)C[C@H]2CC[C@@H]1O[C@H](CO)c1cc(C(F)(F)F)cc(C(F)(F)F)c1 [Example 3, 3-[(3aR,4R,5S,7aS)-5-{(1S)-1-[3,5-bis(trifluoromethyl)phenyl]-2-hydroxyethoxy}-4-(2-methylphenyl)octahydro-2H-isoindol-2-yl]cyclopent-2-en-1-one]
0.07	Cc1ccccc1[C@H]1[C@@H]2CN(C(=O)C(C)(C)C)C[C@H]2CC[C@@H]1O[C@H](CO)c1cc(C(F)(F)F)cc(C(F)(F)F)c1 [Example 12]
0.46	COC[C@@H](O[C@H]1CC[C@@H]2CN(C(=O)N(C)C)C[C@H]2[C@@H]1c1ccccc1C)c1cc(C(F)(F)F)cc(C(F)(F)F)c1 [Example 14]
2.2	Cc1ccccc1[C@H]1[C@@H]2CNC[C@H]2CC[C@@H]1O[C@@H](CO)c1cc(C(F)(F)F)cc(C(F)(F)F)c1 [Example 22]

Same assay, conditions: at 0.1 nM; 125I-substance P binding to human NK1R

inhibition at 0.0001 µM [%]	Compound
47	OC[C@H](O[C@H]1CC[C@@H]2CNC[C@H]2[C@@H]1c1ccc(F)cc1)c1cc(C(F)(F)F)cc(C(F)(F)F)c1 [Example 27]

From US8124633B2, “Hydroxymethyl ether hydroisoindoline tachykinin receptor antagonists” (Merck Sharp & Dohme Corp., priority 2007, dated 2012)
